Test results reported in patent US9738902B2, “Modified PYR/PYL receptors activated by ligands” (priority 2013, dated 2017).

How the values were obtained:
PYR1 K59R F108E = biological target: T1, PYR1 K59R F108E (Arabidopsis thaliana, UniProt O49686, F108E/K59R); test: Y2H Pocket Library Screen (HAB1, X-gal); format: cell-based
T1 construct: expressed in transfected cells; host or cells: S. cerevisiae Y190 yeast two-hybrid reporter strain
Description: (§1) The set of 475 mutant plasmids were individually transformed into the Y190 yeast two hybrid reporter strain co-transformed with pACT-HAB1, as previously described (Park et al., 2009). The yeast strains generated were arrayed into 96-well plates yielding what we refer to as the “pocket library”. The pocket library strains were spotted onto agar plates containing selective synthetic dextrose (minus Leu & Trp) medium that was supplemented with a single test compound at 100 μM. The pocket library strains were separately tested for responsiveness to the following compounds: dichlobenil, benzothiadiazole, mandipropamid, fludioxonil, and benoxacor. After incubating test plates at 30° C. for two days, colonies were chloroform lysed and stained to reveal β-galactosidase expression levels, using previously described methods (Park et al., 2009). Mutants displaying responsiveness to the test compound, if present, were identified by virtue of X-gal staining and then subjected to subsequent optimization efforts. Using this approach we identified mutations that conferred detectable sensitivity to the compounds tested (see entries labeled “Pocket Library Screens” in Table 1).

PYR1 K59R F159I = biological target: T2, PYR1 K59R F159I (Arabidopsis thaliana, UniProt O49686, F159I/K59R); test: Y2H Pocket Library Screen (HAB1, X-gal); format: cell-based
T2 construct: expressed in transfected cells; host or cells: S. cerevisiae Y190 two-hybrid reporter strain
Description: as §1

PYR1 K59R F159L = biological target: T3, PYR1 K59R F159L (Arabidopsis thaliana, UniProt O49686, F159L/K59R); test: Y2H Pocket Library Screen (HAB1, X-gal); format: cell-based
T3 construct: expressed in transfected cells; host or cells: S. cerevisiae Y190
Description: as §1

PYR1 K59R F159V = biological target: T4, PYR1 K59R F159V (Arabidopsis thaliana, UniProt O49686, F159V/K59R); test: Y2H Pocket Library Screen (HAB1, X-gal); format: cell-based
T4 construct: expressed in transfected cells; host or cells: S. cerevisiae Y190
Description: as §1

[1] = biological target: T5, GST-ABI2 in the presence of PYR1^MANDI (Arabidopsis thaliana, UniProt O49686, F108A/F159L/K59R/S122G/V81I/Y58H); test: PP2C activity assay (pNPP); format: biochemical; conditions: PYR1^MANDI 1200 nM, PP2C 600 nM
T5 construct: 6×-His (N); made in house; host or cells: BL21[DE3]pLysS E. coli (receptor)
Description: (§2) One possibility in any functional screen conducted in a heterologous organism such as S. cerevisiae is that mutants identified may only work in the context of the heterologous expression system. We therefore examined whether recombinant PYR1^K59R,F108A,S122G and PYR1^MANDI proteins inhibit PP2C activity in vitro, as is well documented for wild type PYR1 in response to ABA (Park et al., 2009). Both receptors were cloned into pET28 to generate 6×-His (SEQ ID NO:109) tagged receptors. These were expressed in BL21[DE3]pLysS E. coli host cells at 18° C. overnight. 6×-His-fusion proteins were purified from sonicated lysates using Ni-NTA agarose (Qiagen, USA), according to the manufacturer's instructions. For PP2C assays, recombinant GST-HAB1 and GST-ABI2 were expressed and purified as described previously (Park et al., 2009) and PP2C activity assayed conducted using the colorimetric phosphatase substrate para-nitrophenyl phosphate (pNPP) as previously described (Park et al., 2009). PP2C assays were conducted using 600 nM of PP2C and 1200 nM recombinant receptors. […] We note that these mutant receptors cannot respond to ABA due to the K59R mutation they contain, which abolishes ABA responsiveness.

[2] = biological target: T6, GST-HAB1 in the presence of PYR1^MANDI (Arabidopsis thaliana, UniProt O49686, F108A/F159L/K59R/S122G/V81I/Y58H); test: PP2C activity assay (pNPP); format: biochemical; conditions: PYR1^MANDI 1200 nM, PP2C 600 nM
T6 construct: 6×-His (N); made in house; host or cells: BL21[DE3]pLysS E. coli (receptor)
Description: as §2

[3] = biological target: T7, 6×-His-GFP-PYR1^MANDI and GFP-HAB1 (Arabidopsis thaliana, UniProt O49686, F108A/F159L/K59R/S122G/V81I/Y58H); test: co-precipitation after transient co-expression in leaves; format: in vivo, Nicotiana benthamiana; conditions: 50 μM mandipropamid, 20 hours
T7 construct: expressed in transfected cells; host or cells: Nicotiana benthamiana leaves, Agrobacterium tumefaciens GV3101 infiltration
Description: We therefore investigated if the mandipropamid promoted interaction between PYR1^MANDI and the PP2C HAB1 could be observed using similar experiments. To conduct these experiments PYR1^MANDI was cloned as a 6×-His-GFP fusion protein in the vector pEGAD (Cutler et al., 2000). HAB1 was cloned as a GFP fusion protein in the vector pEGAD. Both constructs were transformed into Agrobacterium tumefaciens (GV3101) and utilized in transient expression experiments. The Agrobacterium strains harboring the receptor, PP2C and the silencing suppressor p19 were mixed together in ratios corresponding to 0.1, 1.0 and 0.5 final OD600 units respectively. The mixture was infiltrated into two separate N. benthamiana leaves and 2 days later the leaves were treated with either 50 μM mandipropamid or mock solutions made in water containing 0.02% Silwet L-77. 20 hours later the leaves were homogenized in liquid nitrogen, re-suspended in an extraction buffer composed of 1×TBS, 0.1% NP-40, 1 mM DTT, 10% glycerol, and 1× plant protease inhibitor cocktail (Sigma, USA) and clarified by centrifugation. […] Both PYR1^MANDI and HAB1 were expressed as GFP fusion proteins and could therefore be detected with an anti-GFP antibody. The blots were probed with an anti-GFP monoclonal primary antibody and detected using an anti-mouse IgG-HP sheep secondary antibody using ECL (Amersham, USA) development.

[4] = system: PYR1^MANDI expressing transgenic plants (E15, E16, F29, F34); test: water loss of detached rosettes; format: in vivo, Arabidopsis; conditions: 2 μM mandipropamid, 24 hours before detachment
Description: As another measure of guard cell physiology, we measured rates of water loss in transgenic and control plants exposed to mock or mandipropamid treatments. It is well known that ABA treatments reduce leaf water loss via guard cell closure. 3 week-old homozygous transgenic plants (E15, E16, F29 and F34) and control wild type plants were treated with 2 μM mandipropamid or mock solutions (with 0.02% Silwet as described above). After 24 hours, whole rosettes were detached and their masses monitored over time. […] These experiments, together with the thermal imaging experiments, indicate that mandipropamid can reduce guard cell aperture and reduce transpiration rates in PYR1^MANDI expressing transgenic plants, just as ABA is well known to do to wild type plants.

T4 sequence (O49686 whole entry K59R/F159V): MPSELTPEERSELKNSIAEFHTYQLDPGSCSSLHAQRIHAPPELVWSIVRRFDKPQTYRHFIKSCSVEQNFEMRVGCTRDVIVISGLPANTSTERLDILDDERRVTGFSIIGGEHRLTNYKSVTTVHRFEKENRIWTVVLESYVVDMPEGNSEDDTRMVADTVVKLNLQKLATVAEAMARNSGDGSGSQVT
T4 sequence (Q9CAJ0 23-511, further chain): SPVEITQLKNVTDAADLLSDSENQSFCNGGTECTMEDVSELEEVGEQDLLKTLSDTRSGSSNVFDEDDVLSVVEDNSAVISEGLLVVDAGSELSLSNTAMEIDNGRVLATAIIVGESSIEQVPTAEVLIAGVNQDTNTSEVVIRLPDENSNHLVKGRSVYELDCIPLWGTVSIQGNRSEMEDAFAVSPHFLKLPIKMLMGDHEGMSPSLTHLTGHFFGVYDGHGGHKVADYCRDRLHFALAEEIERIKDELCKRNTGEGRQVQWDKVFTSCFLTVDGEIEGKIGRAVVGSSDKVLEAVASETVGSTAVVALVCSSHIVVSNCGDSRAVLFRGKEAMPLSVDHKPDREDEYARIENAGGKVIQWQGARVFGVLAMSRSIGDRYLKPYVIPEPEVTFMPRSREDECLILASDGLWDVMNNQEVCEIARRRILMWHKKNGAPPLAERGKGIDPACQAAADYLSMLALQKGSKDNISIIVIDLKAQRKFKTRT
T1 sequence (O49686 whole entry K59R/F108E): as the sequence (O49686 whole entry K59R/F159V) above, with F108E, V159F counted along it
T1 sequence (Q9CAJ0 23-511 partner): as the sequence (Q9CAJ0 23-511, further chain) above
T3 sequence (O49686 whole entry K59R/F159L): as the sequence (O49686 whole entry K59R/F159V) above, with V159L counted along it
T3 sequence (Q9CAJ0 23-511, further chain): as the sequence (Q9CAJ0 23-511, further chain) above
T2 sequence (O49686 whole entry K59R/F159I): as the sequence (O49686 whole entry K59R/F159V) above, with V159I counted along it
T2 sequence (Q9CAJ0 23-511, further chain): as the sequence (Q9CAJ0 23-511, further chain) above
T6 sequence (O49686 whole entry Y58H/K59R/V81I/F108A/S122G/F159L): as the sequence (O49686 whole entry K59R/F159V) above, with Y58H, V81I, F108A, S122G, V159L counted along it
T6 sequence (Q9CAJ0 23-511 partner): as the sequence (Q9CAJ0 23-511, further chain) above
T7 sequence (O49686 whole entry Y58H/K59R/V81I/F108A/S122G/F159L): as the sequence (O49686 whole entry K59R/F159V) above, with Y58H, V81I, F108A, S122G, V159L counted along it
T7 sequence (Q9CAJ0 23-511 partner): as the sequence (Q9CAJ0 23-511, further chain) above
T5 sequence (O49686 whole entry Y58H/K59R/V81I/F108A/S122G/F159L): as the sequence (O49686 whole entry K59R/F159V) above, with Y58H, V81I, F108A, S122G, V159L counted along it
T5 sequence (O04719 whole entry partner): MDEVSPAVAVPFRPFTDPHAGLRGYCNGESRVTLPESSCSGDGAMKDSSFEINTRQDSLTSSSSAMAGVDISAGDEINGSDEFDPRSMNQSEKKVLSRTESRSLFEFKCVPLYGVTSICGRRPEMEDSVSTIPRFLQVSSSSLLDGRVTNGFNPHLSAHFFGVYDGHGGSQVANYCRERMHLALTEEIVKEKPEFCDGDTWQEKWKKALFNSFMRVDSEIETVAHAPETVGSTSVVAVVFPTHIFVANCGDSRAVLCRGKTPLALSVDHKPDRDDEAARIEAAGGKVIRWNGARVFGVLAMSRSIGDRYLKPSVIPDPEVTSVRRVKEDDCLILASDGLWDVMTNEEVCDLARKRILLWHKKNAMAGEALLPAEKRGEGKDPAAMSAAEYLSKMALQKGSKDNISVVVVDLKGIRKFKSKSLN

## C#CCOc1ccc(CCNC(=O)C(OCC#C)c2ccc(Cl)cc2)cc1OC (stereo not drawn) [Mandipropamid, mandipropamid]
PYR1 K59R F108E
  Threshold: 100 µM
PYR1 K59R F159I
  Threshold: 100 µM
PYR1 K59R F159L
  Threshold: 100 µM
PYR1 K59R F159V
  Threshold: 100 µM
[1]
  inhibition of ABI2 PP2C activity: saturable inhibition
[2]
  inhibition of HAB1 PP2C activity: saturable inhibition
[3]
  interaction of 6×-His-GFP-PYR1^MANDI and GFP-HAB1 in planta: mandipropamid-dependent physical interaction
[4]
  water loss of detached rosettes: lower water loss

## N#Cc1c(Cl)cccc1Cl [Dichlobenil, dichlobenil]
PYR1 K59R F108E
  Threshold: 100 µM
PYR1 K59R F159I
  Threshold: 100 µM
PYR1 K59R F159L
  Threshold: 100 µM
PYR1 K59R F159V
  Threshold: 100 µM
